PMC12406203 (Journal of Medicinal Chemistry, 2025)

Assays:
Assay in all cases: KINOMEscan
Assay type in all cases: binding
CDK11 = target: T1, CDK11 (Homo sapiens, UniProt Q9BWU1)
T1 construct: purchased Eurofins DiscoverX, LLC; host or cells: E. coli BL21-derived (T7 phage) or HEK-293
Description: (§1) The kinase inhibition profile of compounds 94 and 95 was assessed against 103 protein kinases by Eurofins DiscoverX, LLC., using the KINOMEscan assay. Kinase-tagged T7 phage strains were grown in parallel in 24-well blocks in an E. coli host derived from the BL21 strain. E. coli were grown to log-phase and infected with T7 phage from a frozen stock (multiplicity of infection = 0.4) and incubated with shaking at 32 °C until lysis (90–150 min). The lysates were centrifuged (6000g) and filtered (0.2 μm) to remove cell debris. The remaining kinases were produced in HEK-293 cells and subsequently tagged with DNA for qPCR detection. […] The liganded beads were blocked with excess biotin and washed with blocking buffer (SeaBlock (Pierce), 1% BSA, 0.05% Tween 20, 1 mM DTT) to remove unbound ligand and to reduce nonspecific phage binding. […] Test compounds were prepared as 100× stocks in 100% DMSO and directly diluted into the assay. All reactions were performed in polypropylene 384-well plates in a final volume of 0.02 mL. […] The kinase concentration in the eluates was measured by qPCR.
(§2) The compound(s) were screened at the concentration(s) requested, and results for primary screen binding interactions are reported as RA (%), where lower numbers indicate stronger hits in the matrix. RA=(testcompoundsignal−PCsignal/NCsignal−PCsignal)×100

FGFR2 = target: T2, FGFR2 (Homo sapiens, UniProt P21802)
T2 construct: purchased Eurofins DiscoverX, LLC; host or cells: E. coli (T7 phage) or HEK-293
Description: as §1, §2

IKKβ = target: T3, IKKβ (Homo sapiens, UniProt O14920)
T3 construct: purchased Eurofins DiscoverX, LLC; host or cells: E. coli (T7 phage) or HEK-293
T3 sequence (O14920 1-756): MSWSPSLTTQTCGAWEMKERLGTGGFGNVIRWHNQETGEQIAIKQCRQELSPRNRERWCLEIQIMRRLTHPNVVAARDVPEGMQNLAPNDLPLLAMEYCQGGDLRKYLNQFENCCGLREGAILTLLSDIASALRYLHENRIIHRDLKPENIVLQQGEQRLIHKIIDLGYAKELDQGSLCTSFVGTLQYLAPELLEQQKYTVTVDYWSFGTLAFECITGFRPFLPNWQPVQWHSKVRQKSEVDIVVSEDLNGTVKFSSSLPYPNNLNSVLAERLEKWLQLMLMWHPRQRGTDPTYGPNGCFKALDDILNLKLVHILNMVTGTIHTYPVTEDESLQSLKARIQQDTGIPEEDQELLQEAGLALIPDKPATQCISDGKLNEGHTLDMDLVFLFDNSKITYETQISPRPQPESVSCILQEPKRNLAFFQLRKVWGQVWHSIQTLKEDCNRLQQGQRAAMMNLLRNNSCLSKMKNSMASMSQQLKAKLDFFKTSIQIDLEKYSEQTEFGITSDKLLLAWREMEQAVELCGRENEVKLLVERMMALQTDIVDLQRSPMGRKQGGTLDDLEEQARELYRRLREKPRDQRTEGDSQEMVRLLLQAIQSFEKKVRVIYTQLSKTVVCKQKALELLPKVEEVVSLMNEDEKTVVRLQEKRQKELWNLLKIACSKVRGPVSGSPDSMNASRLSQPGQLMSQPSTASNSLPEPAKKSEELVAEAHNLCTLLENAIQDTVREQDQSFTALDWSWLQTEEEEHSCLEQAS
Description: as §1, §2

KIT = target: T4, KIT (Homo sapiens, UniProt P10721)
T4 construct: purchased Eurofins DiscoverX, LLC; host or cells: E. coli (BL21-derived, T7 phage) or HEK-293
Description: as §1, §2

PIM3 = target: T5, PIM3 (Homo sapiens, UniProt Q86V86)
T5 construct: purchased Eurofins DiscoverX, LLC; host or cells: E. coli BL21-derived host (T7 phage) or HEK-293
Description: as §1, §2

SNARK = target: T6, SNARK (Homo sapiens, UniProt Q9H093)
T6 construct: purchased Eurofins DiscoverX, LLC; host or cells: E. coli BL21-derived host (T7 phage) or HEK-293
T6 sequence (Q9H093 1-628): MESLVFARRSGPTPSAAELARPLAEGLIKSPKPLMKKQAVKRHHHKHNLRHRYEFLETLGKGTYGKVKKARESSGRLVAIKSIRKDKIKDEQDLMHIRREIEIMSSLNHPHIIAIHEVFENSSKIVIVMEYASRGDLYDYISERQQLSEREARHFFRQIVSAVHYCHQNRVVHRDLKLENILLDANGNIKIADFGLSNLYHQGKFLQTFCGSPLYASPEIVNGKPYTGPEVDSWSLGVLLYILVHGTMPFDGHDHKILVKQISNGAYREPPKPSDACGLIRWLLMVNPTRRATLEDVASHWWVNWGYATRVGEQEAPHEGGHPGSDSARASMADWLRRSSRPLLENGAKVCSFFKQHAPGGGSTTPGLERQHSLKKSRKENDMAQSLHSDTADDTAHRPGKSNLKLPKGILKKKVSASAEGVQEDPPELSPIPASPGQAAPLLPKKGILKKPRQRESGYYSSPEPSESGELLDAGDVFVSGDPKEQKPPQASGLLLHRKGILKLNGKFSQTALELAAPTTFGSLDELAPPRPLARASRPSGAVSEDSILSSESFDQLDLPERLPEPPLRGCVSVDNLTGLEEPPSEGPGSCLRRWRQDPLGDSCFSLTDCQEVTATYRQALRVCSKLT
Description: as §1, §2

[1] = target: T7, TYK2(JH1domain-catalytic) (Homo sapiens, UniProt P29597)
T7 construct: TYK2(JH1domain-; purchased Eurofins DiscoverX, LLC; host or cells: E. coli BL21-derived host (T7 phage) or HEK-293
T7 sequence (P29597 897-1176 limits assumed): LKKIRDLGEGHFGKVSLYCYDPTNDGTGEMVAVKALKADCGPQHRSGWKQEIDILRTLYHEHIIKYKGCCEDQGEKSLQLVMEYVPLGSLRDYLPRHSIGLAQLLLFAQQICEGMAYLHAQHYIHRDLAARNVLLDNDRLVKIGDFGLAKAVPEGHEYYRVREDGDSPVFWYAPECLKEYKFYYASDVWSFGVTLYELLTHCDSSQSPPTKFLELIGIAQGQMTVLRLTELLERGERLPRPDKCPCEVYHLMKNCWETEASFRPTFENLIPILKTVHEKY
Description: as §1, §2

T4 sequence (P10721 26-976): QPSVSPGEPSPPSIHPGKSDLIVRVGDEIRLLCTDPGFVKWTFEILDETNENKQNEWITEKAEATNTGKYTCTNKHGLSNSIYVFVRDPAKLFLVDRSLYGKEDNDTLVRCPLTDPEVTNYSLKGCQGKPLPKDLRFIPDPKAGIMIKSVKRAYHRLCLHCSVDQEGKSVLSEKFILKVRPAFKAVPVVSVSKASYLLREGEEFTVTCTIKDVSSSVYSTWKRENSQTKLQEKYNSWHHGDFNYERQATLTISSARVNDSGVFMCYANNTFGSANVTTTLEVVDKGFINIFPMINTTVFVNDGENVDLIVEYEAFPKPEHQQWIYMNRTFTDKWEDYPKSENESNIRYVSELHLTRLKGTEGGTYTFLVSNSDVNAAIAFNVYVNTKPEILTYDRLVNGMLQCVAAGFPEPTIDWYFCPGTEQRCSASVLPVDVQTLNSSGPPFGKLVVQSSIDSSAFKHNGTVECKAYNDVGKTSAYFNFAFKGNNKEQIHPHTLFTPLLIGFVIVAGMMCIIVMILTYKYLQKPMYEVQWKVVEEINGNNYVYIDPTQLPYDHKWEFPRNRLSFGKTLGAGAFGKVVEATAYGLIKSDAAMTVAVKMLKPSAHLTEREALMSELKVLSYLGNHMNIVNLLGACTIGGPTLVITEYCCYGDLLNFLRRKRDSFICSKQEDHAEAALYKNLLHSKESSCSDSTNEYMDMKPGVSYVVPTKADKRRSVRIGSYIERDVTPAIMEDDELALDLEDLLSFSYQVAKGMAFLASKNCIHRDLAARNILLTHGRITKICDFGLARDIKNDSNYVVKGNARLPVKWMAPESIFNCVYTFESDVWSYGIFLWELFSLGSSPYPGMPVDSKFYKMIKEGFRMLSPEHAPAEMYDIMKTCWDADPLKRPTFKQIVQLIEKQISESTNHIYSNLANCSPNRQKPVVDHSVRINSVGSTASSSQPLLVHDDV
T2 sequence (P21802 22-821): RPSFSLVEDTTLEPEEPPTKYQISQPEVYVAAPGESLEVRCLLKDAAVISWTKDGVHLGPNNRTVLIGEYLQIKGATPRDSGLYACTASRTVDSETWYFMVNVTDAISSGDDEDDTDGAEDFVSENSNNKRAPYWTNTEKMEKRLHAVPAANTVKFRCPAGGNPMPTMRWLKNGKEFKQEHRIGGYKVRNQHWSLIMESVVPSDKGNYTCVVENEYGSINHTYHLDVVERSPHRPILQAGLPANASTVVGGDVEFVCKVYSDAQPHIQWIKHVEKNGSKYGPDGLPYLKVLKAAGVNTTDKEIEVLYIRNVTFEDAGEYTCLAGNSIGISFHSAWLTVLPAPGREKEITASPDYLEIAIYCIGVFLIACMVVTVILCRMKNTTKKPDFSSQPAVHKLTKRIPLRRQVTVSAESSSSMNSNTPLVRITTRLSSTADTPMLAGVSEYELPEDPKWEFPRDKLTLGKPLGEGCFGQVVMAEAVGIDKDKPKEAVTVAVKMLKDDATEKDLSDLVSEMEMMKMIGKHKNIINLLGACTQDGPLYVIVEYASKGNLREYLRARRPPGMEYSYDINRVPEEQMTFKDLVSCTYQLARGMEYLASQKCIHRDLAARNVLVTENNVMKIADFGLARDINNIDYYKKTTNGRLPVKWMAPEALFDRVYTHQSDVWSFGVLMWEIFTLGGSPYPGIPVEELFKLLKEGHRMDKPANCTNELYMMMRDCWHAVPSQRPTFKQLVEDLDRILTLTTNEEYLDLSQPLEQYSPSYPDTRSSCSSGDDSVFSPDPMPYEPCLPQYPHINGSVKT
T1 sequence (Q9BWU1 whole entry): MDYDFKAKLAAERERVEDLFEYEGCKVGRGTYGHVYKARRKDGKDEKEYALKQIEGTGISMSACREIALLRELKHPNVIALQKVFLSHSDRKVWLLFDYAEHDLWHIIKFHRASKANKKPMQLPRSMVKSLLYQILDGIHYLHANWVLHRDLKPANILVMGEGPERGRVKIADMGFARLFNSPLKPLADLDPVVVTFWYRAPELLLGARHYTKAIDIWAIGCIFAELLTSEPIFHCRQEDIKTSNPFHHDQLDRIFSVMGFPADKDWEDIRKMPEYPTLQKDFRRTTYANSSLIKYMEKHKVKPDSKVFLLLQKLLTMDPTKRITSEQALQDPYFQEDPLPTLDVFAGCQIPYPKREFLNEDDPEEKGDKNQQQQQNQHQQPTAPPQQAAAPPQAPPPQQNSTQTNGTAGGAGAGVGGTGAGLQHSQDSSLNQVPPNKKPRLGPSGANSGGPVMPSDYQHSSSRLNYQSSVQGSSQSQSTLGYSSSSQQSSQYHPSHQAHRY

Compound | RA @ 1000nM (CDK11) | RA @ 10000nM (CDK11) | RA @ 1000nM (FGFR2) | RA @ 10000nM (FGFR2) | RA @ 1000nM (IKKβ) | RA @ 10000nM (IKKβ) | RA @ 1000nM (KIT) | RA @ 10000nM (KIT) | RA @ 1000nM (PIM3) | RA @ 10000nM (PIM3) | RA @ 1000nM (SNARK) | RA @ 10000nM (SNARK) | RA @ 1000nM [1] | RA @ 10000nM [1]
CN(C)CCNC(=O)c1cc2c(cnn2CC2CCCCC2)cc1Cc1ccc(F)cc1F [Compound 95, 1-(Cyclohexylmethyl)-5-(2,4-difluorobenzyl)-N-(2-(dimethylamino)ethyl)-1H-indazole-6-carboxamide] | 92% | 100% | 100% | 100% | 93% | 80% | 100% | 100% | 100% | 100% | 93% | 92% | 89% | 75%
CC(C)Cn1ncc2cc(Cc3ccc(F)cc3F)c(C(=O)NCCN(C)C)cc21 [Compound 94, 5-(2,4-Difluorobenzyl)-N-(2-(dimethylamino)ethyl)-1-isobutyl-1H-indazole-6-carboxamide] | 100% | 89% | 95% | 100% | 89% | 89% | 100% | 100% | 100% | 100% | 100% | 93% | 78% | 79%
